Measurements as given in patent publication US4309362A, “Process for the optical resolution of DL-p-hydroxy-phenylglycine” (Tanabe Seiyaku Co., Ltd., priority 1976, dated 1982).
≈ marks a conversion by molar mass, not a printed value.

Tests used:
physchem [1] = conditions: 0.5 m benzenesulfonic acid, organic solvent or mixture, aqueous 0.5 M benzenesulfonic acid solution
[2] = Solubility of p-hydroxyphenylglycine o-toluenesulfonate in water (Table 3); format: physicochemical
[3] = Solubility of p-hydroxyphenylglycine p-ethylbenzenesulfonate in aqueous 3 M p-ethylbenzenesulfonic acid (Table 2); format: physicochemical; conditions: aqueous 3 M p-ethylbenzenesulfonic acid solution
Excerpt: *an aqueous 3 M pethylbenzenesulfonate acid solution

physchem [4] = format: physicochemical; conditions: water
Description: DL-, D- or L-p-hydroxyphenylglycine sulfosalicylate is prepared in the same manner as described in Example 1.
p-hydroxyphenyl- Specific Solubility (g/100
Melting rotation ml of water)

## NC(C(=O)O)c1ccc(O)cc1.O=S(=O)(O)c1ccccc1 (racemic) [DL-p-hydroxyphenylglycine benzenesulfonate]
Physchem [1]; 20° C.
  solubility: 154 mg/mL
Physchem [1]; 30° C.
  solubility: 241 mg/mL
Physchem [1]; 40° C.
  solubility: 350 mg/mL

## NC(C(=O)O)c1ccc(O)cc1 (racemic) [DL-p-hydroxyphenylglycine o-toluenesulfonate]
[2]; 20° C.
  solubility: 123 mg/mL (≈ 736 mM)
[2]; 30° C.
  solubility: 160 mg/mL (≈ 957 mM)
[2]; 40° C.
  solubility: 210 mg/mL (≈ 1260 mM)

## NC(C(=O)O)c1ccc(O)cc1 (racemic) [DL-p-hydroxyphenylglycine p-ethylbenzenesulfonate]
[3]; 20° C.
  solubility: 19.3 g/100 ml of solvent
[3]; 30° C.
  solubility: 33.2 g/100 ml of solvent
[3]; 40° C.
  solubility: 52.1 g/100 ml of solvent

## NC(C(=O)O)c1ccc(O)cc1 (racemic) [DL-p-hydroxyphenylglycine sulfosalicylate]
Physchem [4]
  solubility: 26.3 g/100 ml of water
Physchem [4]; Solubility
  solubility: 182 mg/mL (≈ 1090 mM)

## N[C@@H](C(=O)O)c1ccc(O)cc1 (single isomer, unassigned; enantiomer d) [p-hydroxyphenylglycine p-ethylbenzenesulfonate, D-enantiomer, D-p-hydroxyphenylglycine p-ethylbenzenesulfonate]
[3]; 20° C.
  solubility: 10.3 g/100 ml of solvent
[3]; 30° C.
  solubility: 14.2 g/100 ml of solvent
[3]; 40° C.
  solubility: 21.8 g/100 ml of solvent

## N[C@@H](C(=O)O)c1ccc(O)cc1 (single isomer, unassigned; enantiomer d) [p-hydroxyphenylglycine sulfosalicylate monohydrate, D-enantiomer, D-p-hydroxyphenylglycine sulfosalicylate]
Physchem [4]
  solubility: 14.0 g/100 ml of water
Physchem [4]; Solubility
  solubility: 100 mg/mL

## N[C@@H](C(=O)O)c1ccc(O)cc1.O=S(=O)(O)c1ccccc1 [p-hydroxyphenylglycine benzenesulfonate, D-enantiomer, D-p-hydroxyphenylglycine benzenesulfonate]
Physchem [1]; 20° C.
  solubility: 77 mg/mL
Physchem [1]; 30° C.
  solubility: 110 mg/mL
Physchem [1]; 40° C.
  solubility: 167 mg/mL

## N[C@H](C(=O)O)c1ccc(O)cc1.O=S(=O)(O)c1ccccc1 [p-hydroxyphenylglycine benzenesulfonate, L-enantiomer, L-p-hydroxyphenylglycine benzenesulfonate]
Physchem [1]; 20° C.
  solubility: 77 mg/mL
Physchem [1]; 30° C.
  solubility: 110 mg/mL
Physchem [1]; 40° C.
  solubility: 167 mg/mL

## N[C@@H](C(=O)O)c1ccc(O)cc1 [p-hydroxyphenylglycine o-toluenesulfonate, D-enantiomer, D-p-hydroxyphenylglycine o-toluenesulfonate]
[2]; 20° C.
  solubility: 77 mg/mL (≈ 461 mM)
[2]; 30° C.
  solubility: 96 mg/mL (≈ 574 mM)
[2]; 40° C.
  solubility: 122 mg/mL (≈ 730 mM)

## N[C@H](C(=O)O)c1ccc(O)cc1 [p-hydroxyphenylglycine o-toluenesulfonate, L-enantiomer, L-p-hydroxyphenylglycine o-toluenesulfonate]
[2]; 20° C.
  solubility: 77 mg/mL (≈ 461 mM)
[2]; 30° C.
  solubility: 96 mg/mL (≈ 574 mM)
[2]; 40° C.
  solubility: 122 mg/mL (≈ 730 mM)

## N[C@H](C(=O)O)c1ccc(O)cc1 [p-hydroxyphenylglycine p-ethylbenzenesulfonate, L-enantiomer, L-p-hydroxyphenylglycine p-ethylbenzenesulfonate]
[3]; 20° C.
  solubility: 10.3 g/100 ml of solvent
[3]; 30° C.
  solubility: 14.2 g/100 ml of solvent
[3]; 40° C.
  solubility: 21.8 g/100 ml of solvent

## N[C@H](C(=O)O)c1ccc(O)cc1 [p-hydroxyphenylglycine sulfosalicylate monohydrate, L-enantiomer, L-p-hydroxyphenylglycine sulfosalicylate]
Physchem [4]
  solubility: 14.0 g/100 ml of water
Physchem [4]; Solubility
  solubility: 100 mg/mL
